Measured values from patent publication US20240109855A1, “ANTI-QUORUM SENSING, ANTI-BIOFILM, AND INFLAMMATION ATTENUATING COMPOUNDS, COMPOSITIONS, AND METHODS OF USING SAME” (priority 2021, published 2024).
Entries after “also recorded” stand apart in the source; their conditions may differ.

What was measured:
[1] = in vitro; conditions: human, LC50
Method: (§1) The human Hodgkin's Lymphoma derived L428 cell line was used as a model. The cells were grown in RPMI Medium 1640 with 10% FBS, 1% Glutamine and pen-strep (all from Biological Industries, Israel). […] Thirty thousand (30,000) cells/well were placed in 96-well plates with the coumaperine derivatives at different concentrations or with vehicle (DMSO) at a final volume of 200 μl. The plates were incubated for 48 hrs. at 37° C. and 5% CO2 followed by the addition of 50 μl of the XTT reagent tetrazolium-formazan, (Biological Industries, Israel) was added for 2 hrs. at 37° C., 5% CO2. In living cells, mitochondria […] the tetrazolium-formazan salt, thereby generating a color absorbing product at 450 nm. Absorbance was measured at 450 nm and 650 nm in an enzyme-linked immunosorbent assay (ELISA) plate reader (Multiskan Spectrum, Version 1.2), and recorded. Absorption values at 650 nm were subtracted from the blank and the 450 nm values. The results were normalized to the control (treated with DMSO).
(§2) Viability was determined in triplicate in two independent tests. The results were normalized to vehicle (DMSO) treated cells, (100% viability). Mean+SD.

[2] = test system: Agrobacterium tumefaciens (KYC55); test: Quorum sensing inhibition test with bio-reporter KYC55 (TLC overlay); type: cell-based; conditions: for Degree of QSI of KYC55: Table 1, coumaperine derivatives, 40 mM in ~20 μL acetonitrile dried on TLC plate, overnight, color intensity; for QSI activity against KYC55, in words: running text; on Degree of QSI of KYC55: key: −: no inhibition; +: low inhibition; ++: medium inhibition; +++: strong inhibition; on Degree of quorum sensing inhibition (QSI), KYC55: key: −: no inhibition; +: low inhibition; ++: medium inhibition; +++: strong inhibition
Method: (§3) TLC preparation: all derivatives were dissolved in 100% acetonitrile to a concentration of 40 mM. Then placed 20 μlon the same spot on the TLC and let the solvent evaporate before use. CV026: few colonies were transferred to liquid LB (Lenox) for overnight incubation at 30° C. in a 45 degree in orbital shaker. At the O.D. 0.8 3 ml of the starter was added to preheated soft LB agar containing 500 nM of 3-oxo-C6 (Sigma-Aldrich). The mixture was then loaded on the TLC in a glass plate for O.N. incubation in 30° C. The next day inhibition zone was measured, while QS is taking place bacteria produce purple pigment, and when QS is inhibited no pigment is produced. KYC55 (pJZ372) (pJZ384) (pJZ410): 20 μl from the frozen stock into 25 ml AT media (AT buffer×20: 1.57 M KH2PO4 pH=7.3. AT salts mix×20: 300 mM (NH4)2SO4, 13 mM MgSO4, 1.4 mM CaCl2, 0.4 mM FeSO4·7H2O, 0.26 mM MnSO4·H2O. AT media: 50 ml×20 AT-buffer, 50 ml×20 AT-salts, 10 ml 50% (w/v) glucose, add 890 ml to final volume of 1 liter.) For O.N. at 30° C. in an orbital shaker. Into preheated water agar with 25 ml AT-buffer, and 60 μg/ml X-gal and 5 nM 3-oxo-c8 (both from Sigma-Aldrich) 25 ml of the starter was added. Then, that mixture was loaded on the TLC in glass plate for O.N. incubation in 30° C. The next day the inhibition zone was measured. The bacteria produce blue pigment during QS and when QS is inhibited no pigment is produced. KYC55 (pJZ372) (pJZ384) (pJZ410) preservation in tetracycline (1 μg/ml), spectinomycin (100 μg/ml), gentamicin (100 μg/ml) (all antibiotics from Sigma Aldrich) in AT media O.N. then centrifuged and suspend in 15% glycerol frozen and maintained at −80° C.

[3] = test system: Chromobacterium violaceum (CV026); test: Quorum sensing inhibition test with bio-reporter CV026 (TLC overlay); type: cell-based; conditions: for Degree of QSI of CV026: Table 1, coumaperine derivatives, 40 mM in ~20 μL acetonitrile dried on TLC plate, overnight, color intensity; for QSI activity against CV026, in words: running text; on Degree of QSI of CV026: key: −: no inhibition; +: low inhibition; ++: medium inhibition; +++: strong inhibition; on Degree of quorum sensing inhibition (QSI), CV026: key: −: no inhibition; +: low inhibition; ++: medium inhibition; +++: strong inhibition
Method: as §3

[4] = test system: quorum sensing (CV026 and KYC55); test: Quorum sensing inhibition, overall statement over the bio-reporter bacteria; type: cell-based; conditions: for QSI activity overall, in words: running text; for QSI: Table 6 summary
Method: as §3
All the synthesized compounds were evaluated for quorum sensing inhibition against two bioreporter bacteria strains, Chromobacterium violaceum (CV026) and Agrobacterium tumefaciens (KYC55) and the results are summarized in Table 1.

[5] = test system: L428 cells; test: in vitro
Method: as §1, §2

[6] = test system: NF-kB; test: NF-kB-luciferase reporter gene assay in L428 cells; type: cell-based, human; conditions: Table 6 summary; further: key: +: active; −: inactive
Method: FIG. 7 includes a vertical bar graph showing a dose response of NF-kB activation according to an NF-kB reporter gene luciferase assay. L428 cells were stably transfected with the NF-kB luciferase reporter gene. The cells were incubated with the compounds at different concentrations for 2 hours. […] The results represent the percentage of NF-kB activation as compared to vehicle (DMSO) treated cells. All samples were normalized to protein concentration. Mean+SD, Two-way ANOVA and Tukey's multiple comparison test. 95% confidence interval (p-values *≤0.0332, **≤0.0021, ***≤0.0002).
L428 cells stable transfectants with the luciferase NF-kB-Luc reporter gene were generated previously described (Ozer et al., 2009), and were maintained in 500 μg/ml of G418 (G418 disulfate salt, Sigma-Aldrich). The cells (5×10^5 /well in triplicate) were incubated for 2 hrs. in 1 ml of medium containing the solvent (DMSO) or different concentrations of the molecules tested. Cells were then harvested, lysed, and monitored by a luciferase reporter assay kit (Promega) according to the manufacturer's instructions. Measurements were carried out using a luminometer (Promega, GLOMAX™ 20/20 Luminometer). Data were normalized to the protein concentration in each lysate as measured by the Bradford method (BioRad) and normalized to the control. Experiments were repeated at least three times.

[7] = test system: gram-positive and gram-negative bacteria; test: Antibacterial activity, overall statement (diffusion discs test); type: cell-based; conditions: for Antibacterial: Table 6 summary; for Antibacterial activity, in words: running text
Method: All derivatives were dissolved in acetonitrile to a final concentration of 40 mM. Twenty (20) μl were loaded onto Whatman filter paper discs and dried. Bacillus subtilis, Staphylococcus aureus, and Acinetobacter baumannii were grown in LB (Lenox) O.N. One hundred (100) μl from the starter culture was plated on LB agar (Miller) dishes. Streptococcus sobrinus, and Streptococcus mutans grown in Brain Heary Infusion (BHI, Himedia) O.N. were similarly plated on BHI agar dishes. Discs were laid and incubated O.N. in 37° C. and the diameter of inhibition of bacterial growth was measured.
The antibacterial activities of derivatives showing QSI are outlined in Table 4. […] Similar to that idea, synthetic derivatives of furanon (product of marine algae) shown in-vivo QSI activity without antibacterial activity followed by immune response of the infected animal. Phenolic compounds decrease QS and virulence in PA01 and Chromobacterium violaceum. There is increasing number of studies, searching for compounds that targeting non-vital processes to combat bacteria.

[8] = Table 2, piperlongumine derivatives

| Compound | Degree of QSI of KYC55 [2] | QSI activity against KYC55, in words [2] | Degree of QSI of CV026 [3] | QSI activity against CV026, in words [3] | QSI activity overall, in words [4] | LC50 [5] | further results |
| --- | --- | --- | --- | --- | --- | --- | --- |
| COc1ccc(/C=C/C=C/C(=O)N2CCCCC2)cc1 [CP-38, (2E,4E)-5-(4-methoxyphenyl)-1-(piperidin-1-yl)penta-2,4-dien-1-one] | + | low | ++ | moderate |  |  | CC50 at 48 h [1]: 47.4 µM |
| O=C(/C=C/C=C/C=C/c1ccc2c(c1)OCO2)N1CCCCC1 [CP-155, (2E,4E,6E)-7-(benzo[d][1,3]dioxol-5-yl)-1-(piperidin-1-yl)hepta-2,4,6-trien-1-one] | − | inactive | − | inactive | do not inhibit |  |  |
| COc1cc(/C=C/C=C/C(=O)N2CCCCC2)ccc1O [CP-205] | ++ | moderate activity; also recorded: moderately active | ++ | moderate activity; also recorded: moderately active |  | Non-toxic | Cytotoxic [5]: −; Cytotoxic activity, in words [5]: no cytotoxic activity; QSI [4]: +; Anti-inflammatory [6]: +; Antibacterial [7]: − |
| O=C(/C=C/c1ccc2c(c1)OCO2)N1CCCCC1 [CP-215, (E)-3-(benzo[d][1,3]dioxol-5-yl)-1-(piperidin-1-yl)prop-2-en-1-one] |  | highly active |  | highly active | active; also recorded: strong | Non-toxic | Cytotoxic [5]: −; QSI [4]: +; QSI activity overall, in words ([4]; listed as CP215): anti QS activity; Anti-inflammatory [6]: +; Antibacterial [7]: −; Antibacterial activity, in words [7]: did not show antibiotic activity |
| O=C(/C=C/c1ccc2c(c1)OCO2)N1CCCCC1 [CP-270, (E)-3-(benzo)-1-(piperidin-1-yl)prop-2-en-1-one] | +++ | highly QSI active | +++ | highly QSI active |  | Non-toxic | Cytotoxic activity, in words [5]: no cytotoxic activity; Antibacterial activity, in words [7]: did not |
| O=C(/C=C/c1ccc(F)cc1)N1CCCCC1 [CP-273] | − | inactive | + | low activity | low QSI | Non-toxic |  |
| COc1ccc(/C=C/C(=O)N2CCCCC2)cc1 [CP-282] | ++ |  | +++ | more effective against CV026 than KYC55 |  | Non-toxic | Cytotoxic activity, in words [5]: no cytotoxic activity |
| O=C(/C=C/c1ccc([N+](=O)[O-])cc1)N1CCCCC1 [CP-286] | ++ | moderate | + | low | anti QS activity | Non-toxic | Cytotoxic [5]: −; QSI [4]: +; Anti-inflammatory [6]: +; Antibacterial [7]: −; Antibacterial activity, in words [7]: did not show antibiotic activity |
| COc1ccc(/C=C/C(=O)N2CCCCC2)cc1OC [CP-289] | +++ | more effective against KYC55 than CV026 | + |  |  | Non-toxic | Cytotoxic activity, in words [5]: no cytotoxic activity |
| O=C(CCCCc1ccc2c(c1)OCO2)N1CCCCC1 [CP-THP, Tetrahydro Piperine] | + | low activity | + | low activity |  |  |  |
| COc1cc(/C=C/C(=O)N2CCC=CC2=O)cc(OC)c1OC [PL, Piperlongumine, reference compound] |  | inactive |  | inactive | inactive |  | Degree of quorum sensing inhibition (QSI), KYC55 [2, 8]: −; Degree of quorum sensing inhibition (QSI), CV026 [3, 8]: − |
| COc1cc(/C=C/C(=O)OC(=O)/C=C/c2cc(OC)c(OC)c(OC)c2)cc(OC)c1OC [PL-16A] |  | inactive |  | inactive |  |  | Degree of quorum sensing inhibition (QSI), KYC55 [2, 8]: −; Degree of quorum sensing inhibition (QSI), CV026 [3, 8]: − |
| CCNC(=O)/C=C/c1cc(OC)c(OC)c(OC)c1 [PL-17, (E)-N-ethyl-3-(3,4,5-trimethoxyphenyl)acrylamide] |  | inactive |  | inactive |  |  | Degree of quorum sensing inhibition (QSI), KYC55 [2, 8]: −; Degree of quorum sensing inhibition (QSI), CV026 [3, 8]: − |
| COc1cc(/C=C/C(=O)NCc2ccccc2)cc(OC)c1OC [PL-20, (E)-N-benzyl-3-(3,4,5-trimethoxyphenyl)acrylamide] |  | inactive |  | moderate activity |  | Non-toxic | Degree of quorum sensing inhibition (QSI), KYC55 [2, 8]: −; Degree of quorum sensing inhibition (QSI), CV026 [3, 8]: ++ |
| COc1cc(/C=C/C(=O)N2CCCCC2=O)cc(OC)c1OC [PL-31] |  | inactive |  | low activity |  |  | Degree of quorum sensing inhibition (QSI), KYC55 [2, 8]: −; Degree of quorum sensing inhibition (QSI), CV026 [3, 8]: + |
| COc1cc(/C=C/C(=O)CC(=O)/C=C/c2ccc(O)c(OC)c2)ccc1O [curcumin, Curcumin, reference compound] |  | inactive |  | low activity |  |  | Degree of quorum sensing inhibition (QSI), KYC55 ([2]; Table 3, curcumin derivatives): −; Degree of quorum sensing inhibition (QSI), CV026 ([3]; Table 3, curcumin derivatives): + |
| Piperine [reference compound] | − | inactive | − | inactive | do not inhibit |  |  |
